For 24 compounds, IC50 results are on record in patent publication US11970498B2, “CDK2 inhibitors” (BLUEPRINT MEDICINES CORPORATION, priority 2021, dated 2024).

For one experiment, the target named is CDK2/Cyclin E (Homo sapiens, UniProt P24941). As to the kind of experiment: CDK2/Cyclin E biochemical phosphorylation assay (Caliper mobility shift). The note with it: apparent IC50; 1.0 mM ATP or ATP Km; 1.25 nM enzyme; 25° C.; read-out: CDK2/cyclin E1 IC50. In short, it runs like this: (§1)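 7.5 µM 5-FAM-QSPKKG-CONH2 peptide phosphorylated by CDK2/Cyclin E (1.25 nM) or GST-CDK1/Cyclin B1 (1.5 nM) at 1.0 mM ATP or ATP Km, in HEPES pH 7.5, MgCl2, Brij-35, DTT, 1% DMSO, 25 °C to 10–20% conversion. EDTA stop; Caliper mobility-shift readout; apparent IC50 from percent activity vs log concentration.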

The target of a further experiment is T1, CDK1/Cyclin B1, GST-tag (Homo sapiens, UniProt P06493).
T1 construct: GST
As to the kind of experiment: CDK1/Cyclin B1 biochemical phosphorylation assay (Caliper mobility shift). The note with it: apparent IC50; 1.0 mM ATP or ATP Km; 1.5 nM enzyme; 25° C. The gist of the method:
as §1

T1 sequence (P06493 whole entry): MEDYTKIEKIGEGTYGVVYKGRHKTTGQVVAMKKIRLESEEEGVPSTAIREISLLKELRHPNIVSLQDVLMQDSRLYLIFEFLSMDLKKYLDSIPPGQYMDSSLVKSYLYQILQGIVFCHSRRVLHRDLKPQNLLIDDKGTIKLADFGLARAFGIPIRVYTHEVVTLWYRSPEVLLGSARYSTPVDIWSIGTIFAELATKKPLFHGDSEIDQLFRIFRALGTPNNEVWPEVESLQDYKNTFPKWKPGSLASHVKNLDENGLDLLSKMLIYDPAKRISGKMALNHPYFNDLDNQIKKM
T1 sequence (P14635 whole entry partner): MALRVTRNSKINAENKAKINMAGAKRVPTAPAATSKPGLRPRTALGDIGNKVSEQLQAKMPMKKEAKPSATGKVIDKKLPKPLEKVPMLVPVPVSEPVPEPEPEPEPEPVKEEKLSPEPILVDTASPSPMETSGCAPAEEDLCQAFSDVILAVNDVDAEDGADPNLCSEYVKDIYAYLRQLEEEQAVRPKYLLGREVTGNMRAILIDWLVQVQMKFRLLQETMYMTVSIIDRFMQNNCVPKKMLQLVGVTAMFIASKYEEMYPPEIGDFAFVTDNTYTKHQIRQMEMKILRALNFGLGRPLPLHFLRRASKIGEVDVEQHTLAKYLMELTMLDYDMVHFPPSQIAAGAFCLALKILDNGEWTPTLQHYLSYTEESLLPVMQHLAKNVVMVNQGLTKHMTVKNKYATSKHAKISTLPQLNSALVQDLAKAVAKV

Take `FC[C@H](c1ccccc1)n1ncc2ncc(Nc3cc(OC(F)F)[nH]n3)nc21` (single isomer, unassigned) [Example 90, (S)-N-(5-(difluoromethoxy)-1H-pyrazol-3-yl)-1-(2-fluoro-1-phenylethyl)-1H-pyrazolo[3,4-b]pyrazin-6-amine or (R)-N-(5-(difluoromethoxy)-1H-pyrazol-3-yl)-1-(2-fluoro-1-phenylethyl)-1H-pyrazolo[3,4-b]pyrazin-6-amine]: the IC50 is 30 to 100 nM at CDK2/Cyclin E and ≥ 500 nM on CDK1/Cyclin B1, GST-tag.
In the same order, the values of `FC(F)Oc1cc(Nc2cnc3cnn(CC45COCC4C5)c3n2)n[nH]1` (stereo not drawn) [Example 221, 1-(3-oxabicyclo[3.1.0]hexan-1-ylmethyl)-N-(5-(difluoromethoxy)-1H-pyrazol-3-yl)-1H-pyrazolo[3,4-b]pyrazin-6-amine] are 30 to 100 nM and ≥ 500 nM.
In the same order, the values of `FC(F)Oc1cc(Nc2cnc3cnn(C[C@H]4C[C@@H]4F)c3n2)n[nH]1` (single isomer, unassigned) [Example 159, N-(5-(difluoromethoxy)-1H-pyrazol-3-yl)-1-(((1R,2S)-2-fluorocyclopropyl)methyl)-1H-pyrazolo[3,4-b]pyrazin-6-amine or N-(5-(difluoromethoxy)-1H-pyrazol-3-yl)-1-(((1S,2R)-2-fluorocyclopropyl)methyl)-1H-pyrazolo[3,4-b]pyrazin-6-amine] are ≤ 10 nM and ≥ 500 nM.
As to `Cc1ccncc1Cn1ncc2ncc(Nc3cc(OC(F)F)[nH]n3)nc21` [Example 96, N-(5-(difluoromethoxy)-1H-pyrazol-3-yl)-1-((4-methylpyridin-3-yl)methyl)-1H-pyrazolo[3,4-b]pyrazin-6-amine], the IC50 on CDK2/Cyclin E is 30 to 100 nM; on CDK1/Cyclin B1, GST-tag it was ≥ 500 nM.
Regarding `C[C@@H]([C@@H]1CCOC1)n1ncc2ncc(Nc3cc(OC(F)F)[nH]n3)nc21` (single isomer, unassigned) [Example 9], the IC50 at CDK2/Cyclin E was ≤ 10 nM; on CDK1/Cyclin B1, GST-tag, ≥ 500 nM.
Take `O[C@H]1CC[C@@H](n2ncc3ncc(Nc4cc(OC(F)F)[nH]n4)nc32)C1` (single isomer, unassigned) [Example 207]: the IC50 at CDK2/Cyclin E was 10 to 20 nM; on CDK1/Cyclin B1, GST-tag, ≥ 500 nM.
As to `O=C1C[C@H](Cn2ncc3ncc(Nc4cc(OC(F)F)[nH]n4)nc32)CN1` (single isomer, unassigned) [Example 20, (S)-4-((6-((5-(difluoromethoxy)-1H-pyrazol-3-yl)amino)-1H-pyrazolo[3,4-b]pyrazin-1-yl)methyl)pyrrolidin-2-one or (R)-4-((6-((5-(difluoromethoxy)-1H-pyrazol-3-yl)amino)-1H-pyrazolo[3,4-b]pyrazin-1-yl)methyl)pyrrolidin-2-one], the IC50 is ≤ 10 nM at CDK2/Cyclin E and ≥ 500 nM at CDK1/Cyclin B1, GST-tag.
For `Fc1nn(Cc2cccnc2)c2nc(Nc3cc(OC(F)F)[nH]n3)cnc12` [Example 120, N-(5-(difluoromethoxy)-1H-pyrazol-3-yl)-3-fluoro-1-(pyridin-3-ylmethyl)-1H-pyrazolo[3,4-b]pyrazin-6-amine], the IC50 on CDK2/Cyclin E was ≤ 10 nM; on CDK1/Cyclin B1, GST-tag it was ≥ 500 nM.
Take `FC(F)Oc1cc(Nc2cnc3cnn([C@H](c4ccccn4)C(F)F)c3n2)n[nH]1` (single isomer, unassigned) [Example 149, (R)-1-(2,2-difluoro-1-(pyridin-2-yl)ethyl)-N-(5-(difluoromethoxy)-1H-pyrazol-3-yl)-1H-pyrazolo[3,4-b]pyrazin-6-amine or (S)-1-(2,2-difluoro-1-(pyridin-2-yl)ethyl)-N-(5-(difluoromethoxy)-1H-pyrazol-3-yl)-1H-pyrazolo[3,4-b]pyrazin-6-amine]: the IC50 on CDK2/Cyclin E is 30 to 100 nM; on CDK1/Cyclin B1, GST-tag, ≥ 500 nM.
`CC[C@H]([C@H](C)O)n1ncc2ncc(Nc3cc(OC(F)F)[nH]n3)nc21` (single isomer, unassigned) [Example 5, (2S,3R)-3-(6-((5-(difluoromethoxy)-1H-pyrazol-3-yl)amino)-1H-pyrazolo[3,4-b]pyrazin-1-yl)pentan-2-ol or (2S,3S)-3-(6-((5-(difluoromethoxy)-1H-pyrazol-3-yl)amino)-1H-pyrazolo[3,4-b]pyrazin-1-yl)pentan-2-ol]: the IC50 at CDK2/Cyclin E was ≤ 10 nM; at CDK1/Cyclin B1, GST-tag, ≥ 500 nM.
Take `FC(F)Oc1cc(Nc2cnc3cnn(C[C@H]4CCCOC4)c3n2)n[nH]1` (single isomer, unassigned) [Example 141, (R)-N-(5-(difluoromethoxy)-1H-pyrazol-3-yl)-1-((tetrahydro-2H-pyran-3-yl)methyl)-1H-pyrazolo[3,4-b]pyrazin-6-amine or (S)-N-(5-(difluoromethoxy)-1H-pyrazol-3-yl)-1-((tetrahydro-2H-pyran-3-yl)methyl)-1H-pyrazolo[3,4-b]pyrazin-6-amine]: the IC50 at CDK2/Cyclin E is ≤ 10 nM; at CDK1/Cyclin B1, GST-tag, ≥ 500 nM.
On to `C[C@@H](CO)Cn1ncc2ncc(Nc3cc(OC(F)F)[nH]n3)nc21` [Example 198, (R)-3-(6-((5-(difluoromethoxy)-1H-pyrazol-3-yl)amino)-1H-pyrazolo[3,4-b]pyrazin-1-yl)-2-methylpropan-1-ol], for which the IC50 was 30 to 100 nM on CDK2/Cyclin E and ≥ 500 nM at CDK1/Cyclin B1, GST-tag.
As for `C[C@@H]1C[C@H](Cn2ncc3ncc(Nc4cc(OC(F)F)[nH]n4)nc32)C[C@H](C)O1` [Example 65, N-(5-(difluoromethoxy)-1H-pyrazol-3-yl)-1-(((2R,4r,6S)-2,6-dimethyltetrahydro-2Hpyran-4-yl)methyl)-1Hpyrazolo[3,4-b]pyrazin-6-amine], the IC50 is ≤ 10 nM on CDK2/Cyclin E and < 100 nM at CDK1/Cyclin B1, GST-tag.
In the same order, the values of `C[C@@H](c1cccnc1Cl)n1ncc2ncc(Nc3cc(OC(F)F)[nH]n3)nc21` [Example 60, (S)-1-(1-(2-chloropyridin-3-yl)ethyl)-N-(5-(difluoromethoxy)-1H-pyrazol-3-yl)-1H-pyrazolo[3,4-b]pyrazin-6-amine] are ≤ 10 nM and ≥ 500 nM.
The like results for `FC(F)Oc1cc(Nc2cnc3cnn(CC4CC5CCC(C4)O5)c3n2)n[nH]1` (stereo not drawn) [Example 99, 1-((8-oxabicyclo[3.2.1]octan-3-yl)methyl)-N-(5-(difluoromethoxy)-1H-pyrazol-3-yl)-1H-pyrazolo[3,4-b]pyrazin-6-amine] were, in that order, ≤ 10 nM and ≥ 500 nM.
Take `C[C@H](c1cccnn1)n1ncc2ncc(Nc3cc(OC(F)F)[nH]n3)nc21` (single isomer, unassigned) [Example 25, (R)—N-(5-(difluoromethoxy)-1H-pyrazol-3-yl)-1-(1-(pyridazin-3-yl)ethyl)-1H-pyrazolo[3,4-b]pyrazin-6-amine or (S)—N-(5-(difluoromethoxy)-1H-pyrazol-3-yl)-1-(1-(pyridazin-3-yl)ethyl)-1H-pyrazolo[3,4-b]pyrazin-6-amine]: the IC50 is 30 to 100 nM on CDK2/Cyclin E and ≥ 500 nM on CDK1/Cyclin B1, GST-tag.
Consider `FC(F)Oc1cc(Nc2cnc3cnn(CCc4cn[nH]c4)c3n2)n[nH]1` [Example 129, 1-(2-(1H-pyrazol-4-yl)ethyl)-N-(5-(difluoromethoxy)-1H-pyrazol-3-yl)-1H-pyrazolo[3,4-b]pyrazin-6-amine], for which the IC50 was ≤ 10 nM on CDK2/Cyclin E and 100 to 500 nM at CDK1/Cyclin B1, GST-tag.
`FC(F)Oc1cc(Nc2cnc3cnn(CC45CCC(CC4)OC5)c3n2)n[nH]1` [Example 118, 1-((2-oxabicyclo[2.2.2]octan-4-yl)methyl)-N-(5-(difluoromethoxy)-1H-pyrazol-3-yl)-1H-pyrazolo[3,4-b]pyrazin-6-amine]: the IC50 is ≤ 10 nM at CDK2/Cyclin E and 100 to 500 nM at CDK1/Cyclin B1, GST-tag.
Consider `COc1cc(Nc2cnc3cnn(Cc4ccc(F)nc4)c3n2)n[nH]1` [Example 76, 1-((6-fluoropyridin-3-yl)methyl)-N-(5-methoxy-1H-pyrazol-3-yl)-1H-pyrazolo[3,4-b]pyrazin-6-amine], for which the IC50 on CDK2/Cyclin E is 20 to 30 nM; at CDK1/Cyclin B1, GST-tag, ≥ 500 nM.
Regarding `OC1(Cn2ncc3ncc(Nc4cc(OC(F)F)[nH]n4)nc32)CCOCC1` [Example 49, 4-((6-((5-(difluoromethoxy)-1H-pyrazol-3-yl)amino)-1H-pyrazolo[3,4-b]pyrazin-1-yl)methyl)tetrahydro-2H-pyran-4-ol], the IC50 was ≤ 10 nM at CDK2/Cyclin E and 100 to 500 nM at CDK1/Cyclin B1, GST-tag.
Consider `FC(F)Oc1cc(Nc2cnc3cnn(Cc4ccno4)c3n2)n[nH]1` [Example 134, N-(5-(difluoromethoxy)-1H-pyrazol-3-yl)-1-(isoxazol-5-ylmethyl)-1H-pyrazolo[3,4-b]pyrazin-6-amine], for which the IC50 at CDK2/Cyclin E is 10 to 20 nM; on CDK1/Cyclin B1, GST-tag it was ≥ 500 nM.
For the compound `FC(F)Oc1cc(Nc2cnc3cnn(CC4COC4)c3n2)n[nH]1` [Example 85, N-(5-(difluoromethoxy)-1H-pyrazol-3-yl)-1-(oxetan-3-ylmethyl)-1H-pyrazolo[3,4-b]pyrazin-6-amine], the IC50 on CDK2/Cyclin E is 10 to 20 nM; at CDK1/Cyclin B1, GST-tag, ≥ 500 nM.
As for `N#C[C@@]1(Cn2ncc3ncc(Nc4cc(OC(F)F)[nH]n4)nc32)CCOC1` (single isomer, unassigned) [Example 170, (R)-3-((6-((5-(difluoromethoxy)-1H-pyrazol-3-yl)amino)-1H-pyrazolo[3,4-b]pyrazin-1-yl)methyl)tetrahydrofuran-3-carbonitrile or (S)-3-((6-((5-(difluoromethoxy)-1H-pyrazol-3-yl)amino)-1H-pyrazolo[3,4-b]pyrazin-1-yl)methyl)tetrahydrofuran-3-carbonitrile], the IC50 at CDK2/Cyclin E was > 100 nM; at CDK1/Cyclin B1, GST-tag, ≥ 500 nM.
On to `CCC([C@@H](C)O)n1ncc2ncc(Nc3cc(OC(F)F)[nH]n3)nc21` (single isomer, unassigned) [Example 202], for which the IC50 was 30 to 100 nM at CDK2/Cyclin E and ≥ 500 nM on CDK1/Cyclin B1, GST-tag.
